This note sets out measurements from paper PMC2996728 (Archives of biochemistry and biophysics, 2009).

Broadly, the Kd is a measure of binding affinity in units of concentration. Lower therefore signals a tighter complex.

Each structure is given as a SMILES string.

For the assay, the target named is T1, Microsomal glutathione transferase 1 (MGST1) (Rattus norvegicus, UniProt P08011).
T1 sequence (P08011 2-155): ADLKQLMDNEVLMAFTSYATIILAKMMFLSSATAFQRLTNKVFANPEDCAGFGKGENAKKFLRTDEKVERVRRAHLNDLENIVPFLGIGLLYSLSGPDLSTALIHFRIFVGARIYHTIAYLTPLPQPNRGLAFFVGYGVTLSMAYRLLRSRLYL
As to the kind of experiment: equilibrium dialysis. The format is binding. Background: In equilibrium dialysis free small molecules cross a membrane that holds back macromolecules.

Turning to `N[C@@H](CCC(=O)N[C@@H](CSc1ccc([N+](=O)[O-])cc1[N+](=O)[O-])C(=O)NCC(=O)O)C(=O)O` [GSDNB, 1-S-glutathionyl-2,4-dinitrobenzene], binding was characterised by a dissociation constant (Kd) of 320 ± 50 µM.
